# Patent US20080119457A1, “Benzene, Pyridine, and Pyridazine Derivatives” (SERENEX, INC., priority 2006, published 2008)
# Test system: HSP-90 (heat shock protein 90)
# Assay: Determination of affinity for HSP-90 (elution from purine affinity column)
# Format: binding
# Set-up: key: +++ stands for very high; ++ for high; + for moderate
# Experimental: Affinity of test compounds for HSP-90 is determined as follows: Protein mixtures obtained from a variety of organ tissues (for example: spleen, liver and lung) are reversibly bound to a purine affinity column to capture purine-binding proteins, especially HSP-90. The purine affinity column is washed several times, and then eluted with 20 μM, 100 μM, and 500 μM of test compound. Compounds of Formula I elute HP-90 in a dose-dependent manner vs. a control elution using dimethylsulfoxide. The elution profile of Formula I compounds is determined by 1-dimensional SDS polyacrylamide gel electrophoresis. Gels are stained with a fluorescent stain such as sypro ruby (a highly sensitive fluorescent protein stain that can readily detect less than 1 fmol of total protein, i.e., less than 0.04 ng for a 40 kDa protein) or silver nitrate. The gels are imaged using a standard flat bed gel imager and the amount of protein estimated by densitometry. The percent of HSP-90 protein eluted from the column at each concentration is determined and IC50 values are calculated from these estimates.
row,Compound,relative binding affinity to HSP-90
1,"Cn1nc(-c2ccc(C(N)=O)c(NC3CCOCC3)c2)c2c1C(=O)CC(C)(C)C2 [Compound 3, 2-(Tetrahydro-pyran-4-ylamino)-4-(1,5,5-trimethyl-7-oxo-4,5,6,7-tetrahydro-1H-indazol-3-yl)-benzamide]",+++
2,"Cc1cc(=O)c2c(C)nn(-c3ccc(C(N)=O)c(NC4CCOCC4)c3)c2o1 [Compound 7, 4-(3,6-Dimethyl-4-oxo-4H-pyrano[2,3-c]pyrazol-1-yl)-2-(tetrahydro-pyran-4-ylamino)-benzamide]",+++
3,"Cc1nn(-c2ccc(C(N)=O)c(NC3CCOCC3)c2)c2nc[nH]c(=O)c12 [Compound 9, 4-(3-Methyl-4-oxo-4,5-dihydro-pyrazolo[3,4-d]pyrimidin-1-yl)-2-(tetrahydro-pyran-4-ylamino)-benzamide]",+
4,"COc1ccc2ccn(-c3ccc(C#N)c(N[C@H]4CC[C@H](O)CC4)c3)c2c1 [Compound 19, 2-(4-Hydroxycyclohexylamino)-4-(6-methoxyindol-1-yl)benzonitrile]",+++
5,"COc1cccc2c1ccn2-c1ccc(C#N)c(N[C@H]2CC[C@H](O)CC2)c1 [Compound 21, 2-(4-Hydroxycyclohexylamino)-4-(4-methoxyindol-1-yl)benzonitrile]",+++
6,"CC(=O)c1ccc(-c2ccc(C#N)c(NC3CCC(O)CC3)c2)s1 (centres unmarked) [Compound 23, 4-(5-Acetyl-thiophen-2-yl)-2-(4-hydroxy-cyclohexylamino)-benzonitrile]",++
7,"COc1cc2ccn(-c3ccc(C#N)c(Nc4ccccc4)c3)c2cc1OC [Compound 34, 4-(5,6-dimethoxy-1H-indol-1-yl)-2-(phenylamino)benzonitrile]",+
8,"Cc1nc(-c2ccc(C#N)c(NC3CCOCC3)c2)n2c1C(=O)CCC2 [Compound 35, 4-(1-methyl-8-oxo-5,6,7,8-tetrahydroimidazo[1,5-a]pyridin-3-yl)-2-(tetrahydro-2H-pyran-4-ylamino)benzonitrile]",+++
9,"NC(=O)c1ccc(-n2ccc3ccccc32)c(Cl)c1 [Compound 46, 3-chloro-4-(1H-indol-1-yl)benzamide]",++
10,"COCC(C)Nc1cc(-n2cc(C)c(C(C)=O)c2C)ccc1C(N)=O (centres unmarked) [Compound 47, 4-(3-acetyl-2,4-dimethyl-1H-pyrrol-1-yl)-2-(1-methoxypropan-2-ylamino)benzamide]",++
11,"N#Cc1ccc(-c2ccc3n2CCCC3=O)cc1NC1CCC(O)CC1 (centres unmarked) [Compound 51, 2-(4-hydroxycyclohexylamino)-4-(8-oxo-5,6,7,8-tetrahydroindolizin-3-yl)benzonitrile]",+++
